In PubChem BioAssay AID1117275 (Broad Institute, 2014):
Activity calls are given as the source filed them. No rule for the calls is given here.

Test system: orthopoxvirus-infected cells, imaging factories/early/late reporters
Assay: orthopoxvirus gene expression and factory inhibitors, imaging, high MOI, single point, dry powder (AID 1117275)
Conditions: at 10 µM; active compounds read high

| SMILES | late gene expression activity score |
| --- | --- |
| Cc1ccccc1-c1ccc(CN(C)C[C@@H]2Oc3cc(C#C[C@@H](C)O)ccc3S(=O)(=O)N([C@@H](C)CO)C[C@@H]2C)cc1 | 67 |
| C[C@@H](O)C#Cc1ccc2c(c1)O[C@@H](CN(C)S(=O)(=O)c1ccc(-c3ccccc3)cc1)[C@@H](C)CN([C@@H](C)CO)S2(=O)=O | 86 |
| Cc1ccc(-c2ccc(CN(C)C[C@@H]3Oc4cc(C#C[C@@H](C)O)ccc4S(=O)(=O)N([C@@H](C)CO)C[C@@H]3C)cc2)cc1 | 73 |
| C[C@@H](O)C#Cc1ccc2c(c1)O[C@@H](CN(C)Cc1ccc(-c3ccccc3)cc1)[C@@H](C)CN([C@@H](C)CO)S2(=O)=O | 17 (inactive) |
| Cc1cccc(-c2ccc(CN(C)C[C@@H]3Oc4cc(C#C[C@@H](C)O)ccc4S(=O)(=O)N([C@@H](C)CO)C[C@@H]3C)cc2)c1 | 78 |
| C[C@@H](O)C#Cc1ccc2c(c1)O[C@@H](CN(C)Cc1ccc(-c3ccccc3Cl)cc1)[C@@H](C)CN([C@@H](C)CO)S2(=O)=O | 71 |
